This assay concerns the target Transient receptor potential cation channel subfamily A member 1 (Homo sapiens, UniProt O75762). Kind of assay: Measurement of TRPA1 Antagonist Activity. The procedure:
The test substance was dissolved in dimethyl sulfoxide and serially diluted with an assay buffer containing 0.1% bovine serum albumin (1×HBSS, 20 mM HEPES, pH 7.2) to a 4.8-fold concentration of the evaluation concentration. Allylisothiocyanate, which is a known TRPA1 activator, was dissolved in dimethyl sulfoxide to 100 mM, and further diluted 5-fold (100 μM) of the final concentration, like the test substance.

By IC50 is commonly meant the concentration that gives 50% inhibition. A low value points to greater potency in that assay.

Sequence of Transient receptor potential cation channel subfamily A member 1 (O75762 whole entry): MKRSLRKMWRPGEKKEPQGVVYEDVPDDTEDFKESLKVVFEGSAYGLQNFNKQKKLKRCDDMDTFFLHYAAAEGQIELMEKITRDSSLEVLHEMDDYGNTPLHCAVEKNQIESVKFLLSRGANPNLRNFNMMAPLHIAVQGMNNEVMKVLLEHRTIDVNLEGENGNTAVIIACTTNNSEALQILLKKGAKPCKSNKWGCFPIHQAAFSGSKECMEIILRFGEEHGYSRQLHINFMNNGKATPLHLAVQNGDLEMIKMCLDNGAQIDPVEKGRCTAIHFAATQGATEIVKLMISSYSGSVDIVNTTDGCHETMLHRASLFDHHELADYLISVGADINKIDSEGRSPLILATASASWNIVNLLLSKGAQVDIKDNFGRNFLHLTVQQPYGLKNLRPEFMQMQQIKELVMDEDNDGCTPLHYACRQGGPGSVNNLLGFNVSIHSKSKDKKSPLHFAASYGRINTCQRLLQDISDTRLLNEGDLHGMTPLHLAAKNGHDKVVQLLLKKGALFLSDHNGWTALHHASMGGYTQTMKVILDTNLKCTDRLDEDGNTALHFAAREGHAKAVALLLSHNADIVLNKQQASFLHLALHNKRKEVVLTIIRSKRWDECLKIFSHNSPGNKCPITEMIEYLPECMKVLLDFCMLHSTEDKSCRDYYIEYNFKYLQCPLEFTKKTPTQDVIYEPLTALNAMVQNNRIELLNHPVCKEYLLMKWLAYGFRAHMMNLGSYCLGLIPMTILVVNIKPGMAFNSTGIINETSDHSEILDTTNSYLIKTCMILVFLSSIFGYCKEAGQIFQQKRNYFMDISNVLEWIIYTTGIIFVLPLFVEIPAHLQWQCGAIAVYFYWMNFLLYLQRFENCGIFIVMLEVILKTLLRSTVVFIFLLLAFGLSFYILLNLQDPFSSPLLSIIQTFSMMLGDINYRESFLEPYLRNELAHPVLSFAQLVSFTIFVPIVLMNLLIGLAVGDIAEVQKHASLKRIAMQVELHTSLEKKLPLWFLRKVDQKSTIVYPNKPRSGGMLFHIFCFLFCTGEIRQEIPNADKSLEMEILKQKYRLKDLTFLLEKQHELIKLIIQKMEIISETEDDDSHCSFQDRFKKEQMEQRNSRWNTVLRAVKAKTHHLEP

`O=C(NCc1cccc(OCc2ccc(N3CCOCC3)nc2)c1)[C@@H]1CCCN1S(=O)(=O)c1cc2cc(F)ccc2o1` [US10626112, Example 22]: the IC50 amounted to 110 nM. With `O=C(NCc1cccc(CSc2ccc(C(F)(F)F)cc2)c1)[C@@H]1CCCN1S(=O)(=O)c1cc2ccccc2o1` [US10626112, Example 299], the IC50 is 24 nM. Regarding `O=C(NCc1ccnc(-c2ccc(COCC(F)(F)F)nc2)c1)[C@@H]1CCCN1S(=O)(=O)c1cc2ccccc2o1` [US10626112, Example 331], half-maximal inhibition (IC50) required 170 nM.

In turn, `O=C(NCc1cc(-c2ccc(C(F)(F)F)cc2)ncn1)[C@@H]1CCCN1S(=O)(=O)c1cc2ccncc2o1` [US10626112, Example 347] gave an IC50 of 74 nM. `O=C(CN(Cc1ccccc1)S(=O)(=O)c1cc2cc(F)ccc2o1)NCc1cc(-c2ccc(C(F)(F)F)cn2)ccn1` [US10626112, Example 350]: the IC50 was 630 nM. Against the preceding compound, the IC50 is about 8.5-fold higher. Take `O=C(CN(Cc1ncco1)S(=O)(=O)c1cc2cc(F)ccc2o1)NCc1cc(-c2ccc(C(F)(F)F)cn2)ccn1` [US10626112, Example 351]: the IC50 turned out to be 990 nM. Compared with the last compound, the IC50 is about 1.6-fold higher.

For the compound `O=C(CN(Cc1ccccc1)S(=O)(=O)c1cc2cc(F)ccc2o1)NCc1cc(-c2ccc(C(F)(F)F)cc2)ncn1` [US10626112, Example 352], the IC50 was determined as 410 nM.

`O=C(CN(Cc1ncco1)S(=O)(=O)c1cc2cc(F)ccc2o1)NCc1cc(-c2ccc(C(F)(F)F)cc2)ncn1` [US10626112, Example 354]: 380 nM corresponded to half-maximal inhibition (IC50). The IC50 values of the last two compounds are within 1.5-fold of each other. In turn, `COCCN(CC(=O)NCc1cc(-c2ccc(C(F)(F)F)cn2)ccn1)S(=O)(=O)c1cc2cc(F)ccc2o1` [US10626112, Example 355] had a concentration for half-maximal inhibition (IC50) of 100 nM. Next, `CC(C)OCCN(CC(=O)NCc1cc(-c2ccc(C(F)(F)F)cn2)ccn1)S(=O)(=O)c1cc2cc(F)ccc2o1` [US10626112, Example 356]: 190 nM; `CC(C)OCCN(CC(=O)NCc1cc(-c2ccc(C(F)(F)F)cc2)ncn1)S(=O)(=O)c1cc2cc(F)ccc2o1` [US10626112, Example 358]: 110 nM. The result for `O=C(CN(Cc1cnccn1)S(=O)(=O)c1cc2cc(F)ccc2o1)NCc1cc(-c2ccc(C(F)(F)F)cc2)ncn1` [US10626112, Example 361] reads 470 nM; that for `CC(C)(C)OC[C@H](NS(=O)(=O)c1cc2cc(F)ccc2o1)C(=O)NCc1cc(-c2ccc(C(F)(F)F)cc2)ncn1` [US10626112, Example 415], 410 nM; that for `O=C(CN(CC1CCNC1)S(=O)(=O)c1cc2cc(F)ccc2o1)NCc1cc(-c2ccc(C(F)(F)F)cc2)ncn1` (centres undefined) [US10626112, Example 425], 190 nM.
